According to US8163732B2, “Tricyclic heteroaryl compounds useful as inhibitors of Janus kinase” (Vertex Pharmaceuticals Incorporated, priority 2005, dated 2012):

Legend:
JAK-2 = JAK-2 (Homo sapiens, UniProt O60674); test: JAK-2 inhibition assay; assay type: biochemical
JAK-3 = biological target: T1, JAK-3 (Homo sapiens, UniProt P52333); test: JAK-3 inhibition assay; assay type: biochemical
T1 sequence (P52333 1-1124): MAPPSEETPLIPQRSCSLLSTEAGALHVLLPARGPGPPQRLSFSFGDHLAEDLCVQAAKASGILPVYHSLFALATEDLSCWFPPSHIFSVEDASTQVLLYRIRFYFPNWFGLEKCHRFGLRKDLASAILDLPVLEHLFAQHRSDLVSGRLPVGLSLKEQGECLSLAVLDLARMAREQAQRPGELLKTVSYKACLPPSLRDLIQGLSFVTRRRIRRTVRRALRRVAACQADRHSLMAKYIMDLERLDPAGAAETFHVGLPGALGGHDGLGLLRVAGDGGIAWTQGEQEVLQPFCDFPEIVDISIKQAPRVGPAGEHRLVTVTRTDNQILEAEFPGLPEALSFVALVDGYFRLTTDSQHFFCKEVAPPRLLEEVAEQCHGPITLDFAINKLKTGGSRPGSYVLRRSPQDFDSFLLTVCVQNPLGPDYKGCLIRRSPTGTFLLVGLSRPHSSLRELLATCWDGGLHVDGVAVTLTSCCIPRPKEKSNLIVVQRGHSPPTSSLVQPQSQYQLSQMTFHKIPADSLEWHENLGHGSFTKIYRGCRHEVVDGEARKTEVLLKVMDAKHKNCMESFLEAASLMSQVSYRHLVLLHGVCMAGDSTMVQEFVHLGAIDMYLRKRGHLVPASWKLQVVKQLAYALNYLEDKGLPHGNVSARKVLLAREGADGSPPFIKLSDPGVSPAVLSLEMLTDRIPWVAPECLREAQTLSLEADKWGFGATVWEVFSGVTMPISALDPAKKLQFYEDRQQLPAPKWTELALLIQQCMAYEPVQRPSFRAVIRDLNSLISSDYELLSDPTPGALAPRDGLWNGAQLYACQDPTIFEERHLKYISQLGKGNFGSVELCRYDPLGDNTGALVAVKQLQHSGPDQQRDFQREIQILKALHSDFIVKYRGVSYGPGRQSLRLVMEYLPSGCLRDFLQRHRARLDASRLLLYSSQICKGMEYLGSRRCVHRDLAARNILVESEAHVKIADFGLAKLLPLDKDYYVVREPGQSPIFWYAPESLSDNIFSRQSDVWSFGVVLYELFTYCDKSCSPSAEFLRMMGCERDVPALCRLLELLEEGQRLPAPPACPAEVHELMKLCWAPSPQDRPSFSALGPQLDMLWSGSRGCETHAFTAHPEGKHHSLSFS
Method: Compounds were screened for their ability to inhibit JAK using the assay shown below. Reactions were carried out in a kinase buffer containing 100 mM HEPES (pH 7.4), 1 mM DTT, 10 mM MgCl2, 25 mM NaCl, and 0.01% BSA.
Substrate concentrations in the assay were 5 μM ATP (200 μCi/μmole ATP) and 1 μM poly(Glu)4Tyr. Reactions were carried out at 25° C. and 1 nM JAK-3.
To each well of a 96 well polycarbonate plate was added 1.5 μL of a candidate JAK-3 inhibitor along with 50 μL of kinase buffer containing 2 μM poly(Glu)4Tyr and 10 μM ATP. This was then mixed and 50 μL of kinase buffer containing 2 nM JAK-3 enzyme was added to start the reaction. After 20 minutes at room temperature (25° C.), the reaction was stopped with 50 μL of 20% trichloroacetic acid (TCA) that also contained 0.4 mM ATP. The entire contents of each well were then transferred to a 96 well glass fiber filter plate using a TomTek Cell Harvester. After washing, 60 μL of scintillation fluid was added and ^33P incorporation detected on a Perkin Elmer TopCount. After removing the mean background values for all of the data points, the data were fit using Prism software to obtain a Ki value (app).

JAK-2, sequence (O60674 whole entry): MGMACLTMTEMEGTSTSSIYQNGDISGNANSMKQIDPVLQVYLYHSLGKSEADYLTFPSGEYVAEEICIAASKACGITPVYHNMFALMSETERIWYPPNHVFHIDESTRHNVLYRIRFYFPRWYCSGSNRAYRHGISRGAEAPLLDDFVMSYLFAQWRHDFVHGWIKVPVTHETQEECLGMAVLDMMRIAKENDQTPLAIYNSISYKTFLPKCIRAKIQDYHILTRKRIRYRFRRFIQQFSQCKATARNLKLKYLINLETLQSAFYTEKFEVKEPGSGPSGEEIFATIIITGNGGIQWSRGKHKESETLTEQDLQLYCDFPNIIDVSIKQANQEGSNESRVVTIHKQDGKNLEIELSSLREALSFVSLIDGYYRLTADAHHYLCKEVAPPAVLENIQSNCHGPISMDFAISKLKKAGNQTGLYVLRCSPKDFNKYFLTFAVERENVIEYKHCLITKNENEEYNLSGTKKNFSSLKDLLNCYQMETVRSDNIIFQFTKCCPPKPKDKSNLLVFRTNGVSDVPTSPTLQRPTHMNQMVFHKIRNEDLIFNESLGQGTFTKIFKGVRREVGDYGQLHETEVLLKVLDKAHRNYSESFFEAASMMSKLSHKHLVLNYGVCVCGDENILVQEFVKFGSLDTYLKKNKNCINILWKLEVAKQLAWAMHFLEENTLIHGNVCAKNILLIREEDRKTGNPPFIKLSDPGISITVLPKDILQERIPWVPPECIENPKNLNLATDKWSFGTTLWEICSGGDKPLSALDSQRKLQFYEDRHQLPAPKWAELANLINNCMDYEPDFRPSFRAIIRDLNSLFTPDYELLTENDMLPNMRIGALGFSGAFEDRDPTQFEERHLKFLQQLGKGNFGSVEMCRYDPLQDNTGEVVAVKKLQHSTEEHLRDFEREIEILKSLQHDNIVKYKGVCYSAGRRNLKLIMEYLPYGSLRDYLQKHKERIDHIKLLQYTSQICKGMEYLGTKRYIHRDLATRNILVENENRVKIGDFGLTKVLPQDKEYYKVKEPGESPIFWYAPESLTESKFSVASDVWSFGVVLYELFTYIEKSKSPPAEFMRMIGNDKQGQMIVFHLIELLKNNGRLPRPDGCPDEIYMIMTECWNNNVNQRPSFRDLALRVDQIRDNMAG

| Structure (SMILES) | Ki (JAK-2) [µM] | Ki (JAK-3) [µM] |
| --- | --- | --- |
| COc1cc(C2Nc3ccccc3-c3ncnc4[nH]cc2c34)cc(OC)c1O (centres unmarked) [Compound 85] | 0.25 to 2.5 | 0.25 to 2.5 |
| O=C(OCc1ccccc1)N1CCC(C2Nc3ccccc3-c3ccnc4[nH]cc2c34)CC1 (centres unmarked) [Compound 89] | 0.25 to 2.5 | > 2.5 |
| c1ccc2c(c1)NC(C1CCNCC1)c1c[nH]c3nccc-2c13 (centres unmarked) [Compound 90] | 0.25 to 2.5 | 0.25 to 2.5 |
| Nc1ccc(C2=Nc3ccccc3-c3ccnc4[nH]cc2c34)cc1 [Compound 94] | < 0.25 | ≤ 0.25 |
| Cn1cc2c3c(ccnc31)-c1cccnc1NC2c1ccc(O)c(Cl)c1 (centres unmarked) [Compound 95] | < 0.25 | ≤ 0.25 |
| Cn1cc2c3c(ccnc31)-c1cccnc1NC2c1ccc(O)cc1 (centres unmarked) [Compound 96] | < 0.25 | 0.25 to 2.5 |
| Oc1ccc(C2Nc3ncccc3-c3ccnc4[nH]cc2c34)cc1 (centres unmarked) [Compound 97] | < 0.25 | ≤ 0.25 |
| COC(=O)Nc1ccc(C2c3c[nH]c4nccc(c34)-c3ccccc3N2C(=O)OC)cc1 (centres unmarked) [Compound 100] | > 2.5 | 0.25 to 2.5 |
| COC(=O)Nc1ccc(C2c3cn(C(=O)OC)c4nccc(c34)-c3ccccc3N2C(=O)OC)cc1 (centres unmarked) [Compound 101] | > 2.5 | > 2.5 |
| COC(=O)C1(c2ccc(N)cc2)Nc2ccccc2-c2ccnc3[nH]cc1c23 (centres unmarked) [Compound 102] | > 2.5 | > 2.5 |
| CC(C)(C)c1cc(C2Nc3ccccc3-c3ccnc4[nH]cc2c34)cc(C(C)(C)C)c1O (centres unmarked) [Compound 108] | > 2.5 | > 2.5 |
| C1=Nc2ccccc2-c2ccnc3[nH]cc1c23 [Compound 109] | 0.25 to 2.5 | 0.25 to 2.5 |
| Oc1ccc(C2=Nc3ccccc3-c3ccnc4[nH]cc2c34)cc1OC(F)(F)F [Compound 113] | < 0.25 | ≤ 0.25 |
| Oc1c(F)cc(C2Nc3ccccc3-c3ncnc4[nH]cc2c34)cc1F (centres unmarked) [Compound 115] | < 0.25 | ≤ 0.25 |
| Cn1cc2c3c(ncnc31)-c1ccccc1NC2c1ccc(O)c(F)c1 (centres unmarked) [Compound 117] | < 0.25 | ≤ 0.25 |
| c1ccc2c(c1)NC(c1ccc(-n3ccnc3)cc1)c1c[nH]c3nccc-2c13 (centres unmarked) [Compound 119] | 0.25 to 2.5 | 0.25 to 2.5 |
| c1ccc2c(c1)NC(c1ccc(-n3cncn3)cc1)c1c[nH]c3nccc-2c13 (centres unmarked) [Compound 120] | > 2.5 | > 2.5 |
| O=C1NC(c2ccc(O)cc2F)c2c[nH]c3nccc(c23)-c2ccccc21 (centres unmarked) [Compound 127] | < 0.25 | 0.25 to 2.5 |
| CCOC(=O)C1(c2ccc(OC)c(F)c2)Nc2ccccc2-c2ccnc3[nH]cc1c23 (centres unmarked) [Compound 130] | < 0.25 | 0.25 to 2.5 |
| Clc1ccccc1COc1cccc(C2Nc3ccccc3-c3ccnc4[nH]cc2c34)c1 (centres unmarked) [Compound 131] | < 0.25 | 0.25 to 2.5 |
| Cc1ccc(COc2ccccc2C2Nc3ccccc3-c3ccnc4[nH]cc2c34)cc1 (centres unmarked) [Compound 132] | > 2.5 | > 2.5 |
| c1ccc(-c2onc3ccc(C4Nc5ccccc5-c5ccnc6[nH]cc4c56)cc23)cc1 (centres unmarked) [Compound 143] | > 2.5 | > 2.5 |

The remaining lines, values ahead:

| Ki (JAK-2) [µM] | Ki (JAK-3) [µM] | Structure (SMILES) |
| --- | --- | --- |
| < 0.25 | ≤ 0.25 | Oc1ccc(C2Nc3ccccc3-c3ncnc4[nH]cc2c34)cc1Cl (centres unmarked) [Compound 81] |
| < 0.25 | ≤ 0.25 | Oc1ccc(C2Nc3ccccc3-c3ncnc4[nH]cc2c34)cc1Br (centres unmarked) [Compound 82] |
| < 0.25 | ≤ 0.25 | Cc1cc(C2Nc3ccccc3-c3ncnc4[nH]cc2c34)ccc1O (centres unmarked) [Compound 83] |
| < 0.25 | ≤ 0.25 | COc1cc(C2Nc3ccccc3-c3ncnc4[nH]cc2c34)ccc1O (centres unmarked) [Compound 84] |
| > 2.5 | > 2.5 | O=[N+]([O-])c1ccc(C2Nc3ccccc3-c3ccnc4[nH]cc2c34)cc1 (centres unmarked) [Compound 86] |
| > 2.5 | > 2.5 | COC(=O)c1ccc(C2Nc3ccccc3-c3ccnc4[nH]cc2c34)cc1 (centres unmarked) [Compound 87] |
| < 0.25 | ≤ 0.25 | Nc1ccc(C2Nc3ccccc3-c3ccnc4[nH]cc2c34)cc1 (centres unmarked) [Compound 93] |
| > 2.5 | 0.25 to 2.5 | COC(=O)Nc1ccc(C2Nc3ccccc3-c3ccnc4[nH]cc2c34)cc1 (centres unmarked) [Compound 99] |
| 0.25 to 2.5 | 0.25 to 2.5 | Oc1ccc(C2Nc3ccccc3-c3ccnc4[nH]cc2c34)cc1C(F)(F)F (centres unmarked) [Compound 104] |
| < 0.25 | ≤ 0.25 | Oc1c(F)cc(C2Nc3ccccc3-c3ccnc4[nH]cc2c34)cc1F (centres unmarked) [Compound 106] |
| > 2.5 | > 2.5 | O=C(O)c1cc(C2Nc3ccccc3-c3ccnc4[nH]cc2c34)ccc1O (centres unmarked) [Compound 110] |
| > 2.5 | > 2.5 | COC(=O)c1cc(C2Nc3ccccc3-c3ccnc4[nH]cc2c34)ccc1O (centres unmarked) [Compound 111] |
| < 0.25 | ≤ 0.25 | COc1cc(C2Nc3ccccc3-c3ccnc4[nH]cc2c34)cc(Cl)c1O (centres unmarked) [Compound 112] |
| 0.25 to 2.5 | 0.25 to 2.5 | Oc1ccc(C2Nc3ccccc3-c3ccnc4[nH]cc2c34)cc1OC(F)(F)F (centres unmarked) [Compound 114] |
| > 2.5 | > 2.5 | CS(=O)(=O)c1ccc(C2Nc3ccccc3-c3ccnc4[nH]cc2c34)cc1 (centres unmarked) [Compound 121] |
| > 2.5 | > 2.5 | [O-][n+]1ccc(C2Nc3ccccc3-c3ccnc4[nH]cc2c34)cc1 (centres unmarked) [Compound 122] |
| 0.25 to 2.5 | 0.25 to 2.5 | Cc1cc(C2Nc3ccccc3-c3ccnc4[nH]cc2c34)sc1C (centres unmarked) [Compound 124] |

| Ki (JAK-2) [µM] | Ki (JAK-3) [µM] | Structure (SMILES) |
| --- | --- | --- |
| > 2.5 | > 2.5 | COc1ccc(C2NC(=O)c3ccccc3-c3ccnc4[nH]cc2c34)cc1 (centres unmarked) [Compound 126] |
| < 0.25 | ≤ 0.25 | OB(O)c1ccc(C2Nc3ccccc3-c3ccnc4[nH]cc2c34)cc1 (centres unmarked) [Compound 128] |
| > 2.5 | > 2.5 | COc1ccc(C2NC(=O)c3ccccc3-c3ccnc4[nH]cc2c34)cc1C (centres unmarked) [Compound 129] |
| < 0.25 | ≤ 0.25 | Cc1cc(O)ccc1C1Nc2ccccc2-c2ccnc3[nH]cc1c23 (centres unmarked) [Compound 133] |
| 0.25 to 2.5 | 0.25 to 2.5 | FC(F)(F)Oc1ccc(C2Nc3ccccc3-c3ccnc4[nH]cc2c34)cc1 (centres unmarked) [Compound 134] |
| < 0.25 | ≤ 0.25 | COc1ccc(C2Nc3ccccc3-c3ccnc4[nH]cc2c34)cc1 (centres unmarked) [Compound 135] |
| > 2.5 | > 2.5 | FC(F)(F)c1ccc(C2Nc3ccccc3-c3ccnc4[nH]cc2c34)cc1 (centres unmarked) [Compound 136] |
| 0.25 to 2.5 | > 2.5 | Cc1ccc(C2Nc3ccccc3-c3ccnc4[nH]cc2c34)cc1 (centres unmarked) [Compound 137] |
| > 2.5 | > 2.5 | Cc1cc(C2Nc3ccccc3-c3ccnc4[nH]cc2c34)ccc1F (centres unmarked) [Compound 138] |
| 0.25 to 2.5 | 0.25 to 2.5 | O=[N+]([O-])c1cc(C2Nc3ccccc3-c3ccnc4[nH]cc2c34)ccc1O (centres unmarked) [Compound 139] |
| < 0.25 | ≤ 0.25 | Cc1cc(C2Nc3ccccc3-c3ccnc4[nH]cc2c34)ccc1O (centres unmarked) [Compound 140] |
| < 0.25 | 0.25 to 2.5 | c1ccc2c(c1)NC(c1ccc3c(c1)CCO3)c1c[nH]c3nccc-2c13 (centres unmarked) [Compound 141] |
| > 2.5 | > 2.5 | COc1ccc(C2Nc3ccccc3-c3ccnc4[nH]cc2c34)c(OC)c1 (centres unmarked) [Compound 142] |
| 0.25 to 2.5 | > 2.5 | c1ccc2c(c1)NC(c1ccc3nsnc3c1)c1c[nH]c3nccc-2c13 (centres unmarked) [Compound 144] |
| < 0.25 | 0.25 to 2.5 | CC(C)Oc1ccc(C2Nc3ccccc3-c3ccnc4[nH]cc2c34)cc1 (centres unmarked) [Compound 145] |
| < 0.25 | ≤ 0.25 | CCCOc1ccc(C2Nc3ccccc3-c3ccnc4[nH]cc2c34)cc1 (centres unmarked) [Compound 146] |
